According to PubChem BioAssay AID2791 (The Scripps Research Institute Molecular Screening Center, 2010):
The source made the active and inactive calls.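 How the source made its calls: active means blockers of MCL1 binding to BIM peptide with IC50 at or below 10 micromolar; inactive means IC50 above 10 micromolar.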

The compounds below were run against Induced myeloid leukemia cell differentiation protein Mcl-1 (Homo sapiens) (UniProt Q07820) (assay: blockers of MCL1–BIM BH3 interaction – biochemical, fluorescence polarization, GST-MCL1, FITC-BIM-BH3, powder samples, dose response (AID 2791)).
Sequence of Induced myeloid leukemia cell differentiation protein Mcl-1 (Homo sapiens) (Q07820 whole entry, looked up): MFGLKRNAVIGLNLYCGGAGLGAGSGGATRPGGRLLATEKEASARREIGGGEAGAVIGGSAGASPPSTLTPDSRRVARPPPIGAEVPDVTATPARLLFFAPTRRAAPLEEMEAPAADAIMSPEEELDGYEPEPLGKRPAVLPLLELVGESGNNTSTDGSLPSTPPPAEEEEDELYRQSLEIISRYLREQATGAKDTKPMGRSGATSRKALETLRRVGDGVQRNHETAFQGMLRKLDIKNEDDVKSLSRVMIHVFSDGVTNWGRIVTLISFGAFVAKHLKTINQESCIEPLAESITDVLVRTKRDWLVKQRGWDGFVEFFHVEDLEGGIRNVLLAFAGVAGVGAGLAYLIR

Row | Structure (SMILES) | IC50
1 | CCOc1ccc(NC(=O)c2cccc(-n3cccc3)c2)cc1S(=O)(=O)N1CCOCC1 | > 109 µM (inactive)
2 | CCc1sc(C(C2C(=O)CC(C)(C)CC2=O)C2C(=O)CC(C)(C)CC2=O)cc1[N+](=O)[O-] | inactive
3 | O=C1COc2ccc(C(=O)COC(=O)/C=C/c3ccc(Br)o3)cc2N1 | > 109 µM (inactive)
4 | C=CCN=c1scc(-c2ccco2)n1/N=C/c1ccc(O)c(O)c1O | 0.844 µM
5 | O=C(NN=Cc1cccc(F)c1)c1cc(-c2ccco2)nc2ccccc12 | 6.88 µM
6 | COc1ccc(-n2cccc2/C=C2\C(=N)N3N=C(c4ccco4)SC3=NC2=O)cc1 | 1.45 µM
7 | COc1ccc(Cc2nnc(NC(=O)Cc3cccs3)s2)cc1OC | 7.34 µM
8 | C=CCn1c(SCC(=O)c2ccc(O)c(O)c2)nnc1-c1cccnc1 | 4.09 µM
9 | O=C(NN=Cc1ccc(-c2ccc(S(=O)(=O)Nc3ncccn3)cc2)o1)c1cc2ccccc2cc1O | > 109 µM (inactive)
10 | COc1ccc(NC(=O)CN(C)C(=O)c2cc3c(s2)CCC3)cc1 | inactive
11 | COC(=O)c1ccccc1NCc1cc(=O)oc2cc(O)c(O)cc12 | 5.01 µM
12 | Nc1ccc(C(=O)NN=Cc2cc(N=Nc3cccc4ccccc34)ccc2O)cc1 | 5.84 µM
13 | Cc1cccc(NC(=O)CNC(=O)c2cccc(-n3cccc3)c2)c1C | inactive
